How the values were obtained:
Settings in all cases: 48 h
[1] = tested on: NOMO1; assay: cell viability relative to DMSO control; higher = less cytotoxic
In short: (§1)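 Library compounds in DMSO were pin-dosed in an 11-point threefold series (47 μM to 0.79 nM) onto leukemia cells in 1536-well plates (5 μl). Plates held 500 cells/well of NOMO1 or SEM or 1000 cells/well of P12-Ichikawa, each adapted for at least four passages in each medium. Luminescence was read with CellTiter-Glo One after 48 h at 37°C. Viability means the per-plate percentage relative to DMSO wells, using cell-free wells as background.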

[2] = tested on: SEM cells; assay: as above
In short: as §1

[3] = tested on: P12-Ichikawa; assay: as above
In short: as §1

[4] = tested on: NOMO1; assay: AUC of viability dose-response curve (% viability x log10 dose units); higher = less sensitive
In short: (§2)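 In 1536-well plates, leukemia cells adapted to each medium (500 or 1000 cells/well) were exposed for 48 h at 37°C to library compounds in DMSO across 11 threefold doses, 47 μM down to 0.79 nM. Viability was read by CellTiter-Glo One luminescence and normalised per plate to DMSO and cell-free wells. A four-parameter log-logistic fit over log10 doses was integrated by trapezoidal rule. This yielded the area under the curve, with over-full-viability curves scaled and quality-control failures dropped.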

[5] = tested on: SEM cells; assay: as above
In short: as §2

[6] = tested on: P12-Ichikawa; assay: as above
In short: as §2

O=C(O)c1ccc(-c2c[nH]c3ncc(-c4ccccc4)cc23)cc1C1CCCC1
cell viability [%]
Settings | [1] | [2] | [3]
HPLM + 10% dialyzed FBS, 0.000781 µM | 114 | 98 | 108
HPLM + 10% dialyzed FBS, 0.00234 µM | 120 | 103 | 113
HPLM + 10% dialyzed FBS, 0.00702 µM | 121 | 113 | 123
HPLM + 10% dialyzed FBS, 0.0211 µM | 130 | 113 | 116
HPLM + 10% dialyzed FBS, 0.0632 µM | 134 | 118 | 122
HPLM + 10% dialyzed FBS, 0.19 µM | 134 | 125 | 119
HPLM + 10% dialyzed FBS, 0.569 µM | 131 | 99 | 120
HPLM + 10% dialyzed FBS, 1.71 µM | 138 | 108 | 122
HPLM + 10% dialyzed FBS, 5.12 µM | 126 | 82.4 | 117
HPLM + 10% dialyzed FBS, 15.4 µM | 134 | 63.5 | 80.8
HPLM + 10% dialyzed FBS, 46.1 µM | 110 | 66.6 | 92.6
RPMI 5 mM glucose + 10% FBS, 0.000781 µM | 118 | 111 | 119
RPMI 5 mM glucose + 10% FBS, 0.00234 µM | 108 | 110 | 131
RPMI 5 mM glucose + 10% FBS, 0.00702 µM | 131 | 111 | 113
RPMI 5 mM glucose + 10% FBS, 0.0211 µM | 123 | 109 | 126
RPMI 5 mM glucose + 10% FBS, 0.0632 µM | 127 | 121 | 134
RPMI 5 mM glucose + 10% FBS, 0.19 µM | 123 | 113 | 133
RPMI 5 mM glucose + 10% FBS, 0.569 µM | 130 | 101 | 138
RPMI 5 mM glucose + 10% FBS, 1.71 µM | 132 | 91.8 | 131
RPMI 5 mM glucose + 10% FBS, 5.12 µM | 113 | 69.8 | 129
RPMI 5 mM glucose + 10% FBS, 15.4 µM | 115 | 47.1 | 67
RPMI 5 mM glucose + 10% FBS, 46.1 µM | 117 | 43.2 | 105
RPMI 5 mM glucose + 10% dialyzed FBS, 0.000781 µM | 108 | 114 | 114
RPMI 5 mM glucose + 10% dialyzed FBS, 0.00234 µM | 127 | 116 | 124
RPMI 5 mM glucose + 10% dialyzed FBS, 0.00702 µM | 112 | 119 | 126
RPMI 5 mM glucose + 10% dialyzed FBS, 0.0211 µM | 133 | 138 | 130
RPMI 5 mM glucose + 10% dialyzed FBS, 0.0632 µM | 137 | 114 | 132
RPMI 5 mM glucose + 10% dialyzed FBS, 0.19 µM | 126 | 115 | 125
RPMI 5 mM glucose + 10% dialyzed FBS, 0.569 µM | 125 | 123 | 138
RPMI 5 mM glucose + 10% dialyzed FBS, 1.71 µM | 132 | 101 | 133
RPMI 5 mM glucose + 10% dialyzed FBS, 5.12 µM | 120 | 65.3 | 121
RPMI 5 mM glucose + 10% dialyzed FBS, 15.4 µM | 105 | 44.1 | 73.6
RPMI 5 mM glucose + 10% dialyzed FBS, 46.1 µM | 119 | 35.3 | 96.3

AUC of viability dose-response curve
Settings | [4] | [5] | [6]
HPLM + 10% dialyzed FBS | 466 | 435 | 458
RPMI 5 mM glucose + 10% FBS | 471 | 404 | 453
RPMI 5 mM glucose + 10% dialyzed FBS | 468 | 400 | 450

OC(CCN1CCCCC1)(C2CC\3CC2\C=C3)C4=CC=CC=C4 (stereo not drawn)
cell viability [%]
Settings | [1] | [2] | [3]
HPLM + 10% dialyzed FBS, 0.000781 µM | 125 | 102 | 118
HPLM + 10% dialyzed FBS, 0.00234 µM | 119 | 110 | 128
HPLM + 10% dialyzed FBS, 0.00702 µM | 125 | 113 | 123
HPLM + 10% dialyzed FBS, 0.0211 µM | 123 | 97.7 | 98.1
HPLM + 10% dialyzed FBS, 0.0632 µM | 140 | 123 | 131
HPLM + 10% dialyzed FBS, 0.19 µM | 133 | 120 | 122
HPLM + 10% dialyzed FBS, 0.569 µM | 138 | 121 | 134
HPLM + 10% dialyzed FBS, 1.71 µM | 144 | 94.8 | 135
HPLM + 10% dialyzed FBS, 5.12 µM | 136 | 118 | 126
HPLM + 10% dialyzed FBS, 15.4 µM | 117 | 129 | 123
HPLM + 10% dialyzed FBS, 46.1 µM | 94.2 | 126 | 126
RPMI 5 mM glucose + 10% FBS, 0.000781 µM | – | 94.9 | –
RPMI 5 mM glucose + 10% FBS, 0.00234 µM | – | 126 | –
RPMI 5 mM glucose + 10% FBS, 0.00702 µM | – | 115 | –
RPMI 5 mM glucose + 10% FBS, 0.0211 µM | – | 91 | –
RPMI 5 mM glucose + 10% FBS, 0.0632 µM | – | 122 | –
RPMI 5 mM glucose + 10% FBS, 0.19 µM | – | 119 | –
RPMI 5 mM glucose + 10% FBS, 0.569 µM | – | 116 | –
RPMI 5 mM glucose + 10% FBS, 1.71 µM | – | 107 | –
RPMI 5 mM glucose + 10% FBS, 5.12 µM | – | 123 | –
RPMI 5 mM glucose + 10% FBS, 15.4 µM | – | 134 | –
RPMI 5 mM glucose + 10% FBS, 46.1 µM | – | 121 | –
RPMI 5 mM glucose + 10% dialyzed FBS, 0.000781 µM | – | 104 | 118
RPMI 5 mM glucose + 10% dialyzed FBS, 0.00234 µM | – | 104 | 122
RPMI 5 mM glucose + 10% dialyzed FBS, 0.00702 µM | – | 113 | 134
RPMI 5 mM glucose + 10% dialyzed FBS, 0.0211 µM | – | 70.2 | 91.4
RPMI 5 mM glucose + 10% dialyzed FBS, 0.0632 µM | – | 129 | 133
RPMI 5 mM glucose + 10% dialyzed FBS, 0.19 µM | – | 113 | 127
RPMI 5 mM glucose + 10% dialyzed FBS, 0.569 µM | – | 127 | 123
RPMI 5 mM glucose + 10% dialyzed FBS, 1.71 µM | – | 120 | 134
RPMI 5 mM glucose + 10% dialyzed FBS, 5.12 µM | – | 132 | 127
RPMI 5 mM glucose + 10% dialyzed FBS, 15.4 µM | – | 136 | 126
RPMI 5 mM glucose + 10% dialyzed FBS, 46.1 µM | – | 131 | 130

AUC of viability dose-response curve
Settings | [4] | [5] | [6]
HPLM + 10% dialyzed FBS | 465 | 442 | 463
RPMI 5 mM glucose + 10% FBS | 475 | 440 | 470
RPMI 5 mM glucose + 10% dialyzed FBS | 453 | 439 | 455
